In patent publication US20150034084A1, “[…] NITRIC OXIDE FOR TREATING RESPIRATORY DISEASES” (Advanced Inhalation Therapies (AIT) Ltd., priority 2012, published 2015):
Where two headings read alike, the source gives them in different places.

Experiments:
[1] = tested on: Group B Streptococci; details: 200 ppm gNO, saline; cited from earlier work
[2] = Phase I safety study: serum nitrite/nitrate by Griess reagent; format: in vivo, human; details: during the trial, 160 ppm gNO
Protocol: (§1) After obtaining informed consent, treatment was initiated within 5 days of enrollment. Subjects were housed in a hospital ward and received 160 ppm gNO for 30 minutes every four hours (Q4h), five times a day, for five consecutive days by inhalation. Subjects returned for follow-up evaluations 3, 7 and 21 days after the final gNO administration. Subject safety was determined by monitoring vital signs, methemoglobin levels, lung function, blood chemistry, hematology, prothrombin time, inflammatory cytokine/chemokines levels and endothelial activation. These parameters were compared to baseline and at various time-points during and after gNO administration.
These parameters were measured continuously during every gNO administration course and for 3.5 hours after the first treatment of the day. Daily serum samples were collected and frozen at −80° C. and the serum […] level was measured using the Griess reagent.

[3] = tested on: Pseudomonas aeruginosa; details: 160 ppm gNO, intermittent 30 minute exposures, rat; cited from earlier work
[4] = rats, cited from earlier work
[5] = tested on: influenza A/victoria/H3N2; details: 160 ppm gNO, cited from earlier work
[6] = tested on: Acinetobacter sp.; details: 200 ppm gNO, saline; cited from earlier work
[7] = tested on: S. aureus; details: cited from earlier work
[8] = tested on: E. Coli; details: 200 ppm gNO, saline; cited from earlier work
[9] = tested on: Ang-1 and Ang-2; assay: Phase I safety study: plasma angiopoietins (vascular endothelial activation); format: in vivo, human; details: 160 ppm gNO inhalation
Protocol: as §1
(§2) Hematological assessment included a complete blood count and differentials (hemoglobin, hematocrit, red blood cell count, white blood cell count, white blood cell differential, and platelet count) were obtained in order to monitor blood chemistry, hematology and inflammation measurements. The blood chemistry profile included serum creatinine, and liver function tests such as aspartate aminotransferase (AST) serum glutamic oxaloacetic transaminase (SGOT), alkaline phosphatase, and gamma-glutamyl transferase (GGT). The effect of gNO on coagulation was determined by the prothrombin time (PT) and its derived measures of prothrombin ratio (PR) and international normalized ratio (INR). Heparinized plasma was collected at baseline and on days 1, 2, 4, and 5 of gNO administration, and on follow-up days 3, 7 and 21 and frozen at −80° C. Plasma cytokine levels were assessed using the human inflammation cytokine bead array kit (BD Bioscience, Canada). Plasma levels of angiopoietin Ang-1 and Ang-2 were determined by ELISA (R&D Systems, USA).
To assess whether gNO inhalation may cause inflammation or endothelial activation cytokines and the vascular endothelium activation factors Ang-1 and Ang-2 were quantified in peripheral plasma at baseline at various time points thereafter.

[10] = tested on: human respiratory syncytial virus (rgRSV30); assay: RSV exposure to 160 ppm gNO for 30 minutes, plaque/fluorescence assay; format: cell-based; details: single 30 minutes exposure to 160 ppm gNO
[11] = continuous delivery of 80 ppm gNO; cited from earlier work
[12] = tested on: P. aeruginosa (ATCC); details: 200 ppm gNO, saline; cited from earlier work
[13] = tested on: Klebsiella sp.#2; details: 200 ppm gNO, saline; cited from earlier work
[14] = Phase I safety study: hematology, clinical chemistry, coagulation; format: in vivo, human
Protocol: as §1, §2

[15] = tested on: Serracia sp.; details: 200 ppm gNO, saline; cited from earlier work
[16] = rats, gNO concentrations below 200 ppm, 6 hours/day for 28 days; cited from earlier work
[17] = tested on: five planktonic species of methicillin resistant S. aureous (MRSA); details: 1,600 ppm hours of gNO; cited from earlier work

## [N]=O [gNO, nitric oxide]
[1]
  LD100: 2 h
  Latent Period: 1 h
  −2.5 Log10: 1.5 hours
[2]
  serum nitrite/nitrate levels versus baseline: no significant differences
[3]
  pulmonary bioburden and leukocyte infiltration: effective to reduce the pulmonary bioburden and leukocyte infiltration
[4]; 300 ppm gNO, groups of 10, first 1-2 days
  mortality: Six of the animals
[4]; 400 ppm gNO, 6 hours per day
  mortality: all of the animals died on the first day
[4]; 400 ppm gNO
  MetHb level: 72.5 percents
[4]; 500 ppm gNO, 6 hours per day
  mortality: all of the animals died on the first day
[4]; 500 ppm gNO
  MetHb level: 67 percents
[5]; MDCK plaque assay, A/Victoria/H3N2
  infectivity: reducing the infectivity
[5]; one 30 minute dose vs three 30 minute treatments Q4h
  anti-viral effect, intermittent versus single exposure: more evident in the intermittent form of exposure
[6]
  LD100: 6 h
  Latent Period: 4 h
  −2.5 Log10: 5 hours
[7]; 50-160 ppm gNO, solid media, vs medical air
  survival (downward bactericidal trend towards): 5-10%
[7]; gNO greater than 120 ppm, agar plates
  reduction of colony formation: greater than 90%
[7]; gNO greater than 120 ppm
  time required to achieve the >90% reduction of colony formation: 8 to 12 h
[8]
  LD100: 5 h
  Latent Period: 3 h
  −2.5 Log10: 4.2 hours
[9]
  Ang-2/Ang-1 ratio: not affected
  plasma Ang-1: unaffected
  plasma Ang-2: not affected
[10]; starting level 500 PFU
  viral viability: substantially nullified
[10]; starting level 1000 PFU
  reduction of virus viability (factor): ~10
[10]; starting level 2000 PFU
  reduction of virus viability (factor): ~10
[11]
  NO2 level: 2.6 ppm
  increase of SpMet levels: at least 5%
  subjects exceeding 7% SpMet: 35%
[12]
  LD100: 3 h
  Latent Period: 1 h
  −2.5 Log10: 2.1 hours
[13]
  LD100: 5 h
  Latent Period: 2 h
  −2.5 Log10: 4.1 hours
[14]; baseline 0.15 giga/L, p=0.104
  eosinophil cell numbers, end of study: 0.19 giga/L
[14]; baseline to completion of day 5
  blood coagulation parameters, clinical chemistry and hematological parameters: no statistically, nor clinically significant changes
[14]; baseline value of zero, p=0.169
  neutrophil cell numbers, end of study: 0.01 giga/L
[15]
  LD100: 6 h
  Latent Period: 4 h
  −2.5 Log10: 4.9 hours
[16]
  deaths: No deaths occurred
[17]
  population of planktonic MRSA strains: A reduction in the population of all five MRSA planktonic strains was observed
